Results: ChEMBL document CHEMBL6134892, “Discovery and Evaluation of DA-302168S as an Efficacious Oral Small-Molecule Glucagon-Like Peptide-1 Receptor Agonist” (J Med Chem, 2025)
One block for each compound: values may come before it.

Experiments:
[1] = target: T1, Glucagon-like peptide 1 receptor (Homo sapiens, UniProt P43220); test: Agonist activity at human GLP-1R expressed in HEK293 cells coexpressing CRE LUC incubated for 5 hrs by luciferase based microplate reader analysis; format: functional, cell-based
T1 sequence (P43220 whole entry): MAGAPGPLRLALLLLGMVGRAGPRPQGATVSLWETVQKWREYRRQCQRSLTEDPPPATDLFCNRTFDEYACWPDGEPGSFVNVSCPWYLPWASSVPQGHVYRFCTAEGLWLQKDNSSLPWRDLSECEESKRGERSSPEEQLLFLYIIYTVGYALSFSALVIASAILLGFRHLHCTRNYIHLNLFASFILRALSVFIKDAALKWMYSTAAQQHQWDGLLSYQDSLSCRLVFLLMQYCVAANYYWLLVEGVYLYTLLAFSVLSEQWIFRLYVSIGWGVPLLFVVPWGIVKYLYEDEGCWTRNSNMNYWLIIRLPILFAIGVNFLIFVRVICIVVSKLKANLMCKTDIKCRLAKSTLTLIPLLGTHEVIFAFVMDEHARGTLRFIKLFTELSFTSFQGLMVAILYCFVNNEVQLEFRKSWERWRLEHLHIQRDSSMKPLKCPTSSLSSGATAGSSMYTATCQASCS

Cytochrome P450 2B6 = target: T2, Cytochrome P450 2B6 (Homo sapiens, UniProt P20813); test: Inhibition of CYP2B6 in human liver microsomes incubated for 10 mins in presence of NADPH by LC-MS/MS analysis; format: ADME, Microsome
T2 sequence (P20813 whole entry): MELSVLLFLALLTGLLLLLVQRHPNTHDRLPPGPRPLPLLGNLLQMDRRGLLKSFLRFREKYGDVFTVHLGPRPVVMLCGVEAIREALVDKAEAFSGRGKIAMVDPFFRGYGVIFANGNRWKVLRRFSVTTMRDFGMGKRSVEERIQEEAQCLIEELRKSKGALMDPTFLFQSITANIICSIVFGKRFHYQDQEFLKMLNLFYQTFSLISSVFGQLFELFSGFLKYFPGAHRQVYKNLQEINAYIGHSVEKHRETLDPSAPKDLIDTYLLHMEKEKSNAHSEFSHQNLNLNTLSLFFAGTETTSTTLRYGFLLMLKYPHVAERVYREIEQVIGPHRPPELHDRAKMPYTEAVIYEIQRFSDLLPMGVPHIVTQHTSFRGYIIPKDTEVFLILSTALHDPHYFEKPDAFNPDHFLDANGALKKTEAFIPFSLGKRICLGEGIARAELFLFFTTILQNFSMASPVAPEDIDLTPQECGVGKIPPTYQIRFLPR

[2] = target: T1, Glucagon-like peptide 1 receptor; test: Agonist activity at human GLP-1R expressed in HEK293 cells assessed as beta-arrestin recruitment; format: functional, cell-based
[3] = target: CB2 (cannabinoid receptor 2) (Homo sapiens, UniProt P34972); test: Inhibition of CB2 (unknown origin) at 10 uM relative to control; format: toxicity
CB2 (cannabinoid receptor 2), sequence (P34972 whole entry): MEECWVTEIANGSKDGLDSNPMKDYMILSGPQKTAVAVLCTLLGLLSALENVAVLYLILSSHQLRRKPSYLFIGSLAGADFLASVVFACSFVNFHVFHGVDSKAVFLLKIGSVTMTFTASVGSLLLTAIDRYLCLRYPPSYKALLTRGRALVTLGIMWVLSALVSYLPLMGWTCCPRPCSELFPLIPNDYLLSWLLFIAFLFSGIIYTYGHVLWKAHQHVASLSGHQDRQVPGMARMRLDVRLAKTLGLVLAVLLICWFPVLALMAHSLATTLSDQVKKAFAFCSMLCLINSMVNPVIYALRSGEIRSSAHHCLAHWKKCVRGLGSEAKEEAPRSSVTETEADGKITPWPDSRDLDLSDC

[4] = Cmax in Cynomolgus monkey at 5 mg/kg, po measured up to 48 hrs by LC-MS/MS analysis; format: ADME, organism-based, Macaca fascicularis; conditions: in vivo
Cytochrome P450 1A2 = target: T3, Cytochrome P450 1A2 (Homo sapiens, UniProt P05177); test: Inhibition of CYP1A2 in human liver microsomes incubated for 10 mins in presence of NADPH by LC-MS/MS analysis; format: ADME, Microsome
T3 sequence (P05177 whole entry): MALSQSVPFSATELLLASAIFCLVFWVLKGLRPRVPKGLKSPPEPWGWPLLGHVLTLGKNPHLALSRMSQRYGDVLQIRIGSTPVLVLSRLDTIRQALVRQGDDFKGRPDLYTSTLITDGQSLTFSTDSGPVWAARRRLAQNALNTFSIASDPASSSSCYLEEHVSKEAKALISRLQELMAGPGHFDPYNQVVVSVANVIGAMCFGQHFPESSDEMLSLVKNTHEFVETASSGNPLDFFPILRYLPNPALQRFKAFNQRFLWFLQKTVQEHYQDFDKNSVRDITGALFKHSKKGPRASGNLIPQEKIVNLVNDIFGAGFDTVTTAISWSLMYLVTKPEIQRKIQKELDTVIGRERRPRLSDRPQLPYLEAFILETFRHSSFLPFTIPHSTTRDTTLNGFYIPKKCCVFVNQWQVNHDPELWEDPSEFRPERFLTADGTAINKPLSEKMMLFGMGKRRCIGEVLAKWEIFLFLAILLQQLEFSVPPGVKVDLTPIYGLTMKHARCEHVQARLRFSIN

[5] = Tmax in Sprague-Dawley rat at 10 mg/kg, po measured up to 24 hrs by LC-MS/MS analysis; format: ADME, organism-based; conditions: in vivo
[6] = Oral bioavailability in Sprague-Dawley rat at 10 mg/kg measured up to 24 hrs by LC-MS/MS analysis; format: ADME, organism-based; conditions: in vivo
[7] = target: T1, Glucagon-like peptide 1 receptor; test: Agonist activity at human GLP-1R expressed in HEK293 cells by cAMP accumulation assay; format: functional, cell-based
[8] = Tmax in Cynomolgus monkey at 5 mg/kg, po measured up to 48 hrs by LC-MS/MS analysis; format: ADME, organism-based, Macaca fascicularis; conditions: in vivo
[9] = target: LCK (tyrosine-protein kinase Lck) (Homo sapiens, UniProt P06239); test: Inhibition of LCK (unknown origin) at 10 uM relative to control; format: toxicity
LCK (tyrosine-protein kinase Lck), sequence (P06239 whole entry): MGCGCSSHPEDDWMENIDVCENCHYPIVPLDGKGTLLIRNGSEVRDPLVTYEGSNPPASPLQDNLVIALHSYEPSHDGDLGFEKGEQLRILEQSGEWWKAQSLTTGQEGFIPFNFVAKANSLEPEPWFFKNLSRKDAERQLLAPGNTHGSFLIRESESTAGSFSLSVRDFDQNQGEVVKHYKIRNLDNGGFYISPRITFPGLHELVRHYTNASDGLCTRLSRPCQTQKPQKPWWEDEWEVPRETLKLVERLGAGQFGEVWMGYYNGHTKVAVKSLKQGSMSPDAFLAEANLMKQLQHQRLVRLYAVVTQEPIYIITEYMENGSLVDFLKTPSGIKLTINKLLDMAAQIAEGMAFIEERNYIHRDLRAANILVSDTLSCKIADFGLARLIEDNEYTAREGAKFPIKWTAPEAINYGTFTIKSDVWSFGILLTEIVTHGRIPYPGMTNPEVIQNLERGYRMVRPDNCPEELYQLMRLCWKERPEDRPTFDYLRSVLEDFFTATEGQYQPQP

[10] = Metabolic stability in human liver microsomes assessed as half life at 1 uM measured after 5 to 45 mins in presence of NADPH by LC-MS/MS analysis; format: ADME, Microsome; conditions: time 5-45 min
[11] = Metabolic stability in human liver microsomes assessed as hepatic clearance at 1 uM measured after 5 to 45 mins in presence of NADPH by LC-MS/MS analysis; format: ADME, Microsome; conditions: time 5-45 min
[12] = AUC last in Sprague-Dawley rat at 10 mg/kg, po measured up to 24 hrs by LC-MS/MS analysis; format: ADME, organism-based; conditions: in vivo
Cytochrome P450 2C9 = Cytochrome P450 2C9 (Homo sapiens, UniProt P11712); test: Inhibition of CYP2C9 in human liver microsomes incubated for 10 mins in presence of NADPH by LC-MS/MS analysis; format: ADME, Microsome
Cytochrome P450 2C9, sequence (P11712 whole entry): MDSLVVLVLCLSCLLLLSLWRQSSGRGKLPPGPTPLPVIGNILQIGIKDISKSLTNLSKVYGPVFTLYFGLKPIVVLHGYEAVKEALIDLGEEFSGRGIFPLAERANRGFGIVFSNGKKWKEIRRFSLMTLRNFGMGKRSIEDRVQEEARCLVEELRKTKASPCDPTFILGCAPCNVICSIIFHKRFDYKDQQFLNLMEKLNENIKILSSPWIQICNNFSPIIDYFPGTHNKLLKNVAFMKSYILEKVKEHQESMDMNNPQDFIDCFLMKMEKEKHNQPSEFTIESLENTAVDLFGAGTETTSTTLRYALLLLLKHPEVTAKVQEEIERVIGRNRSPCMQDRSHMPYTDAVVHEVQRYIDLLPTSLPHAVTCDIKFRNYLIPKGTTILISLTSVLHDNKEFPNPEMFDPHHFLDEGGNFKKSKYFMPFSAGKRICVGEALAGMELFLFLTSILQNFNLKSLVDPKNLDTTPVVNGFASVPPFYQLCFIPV

[13] = Half life in Cynomolgus monkey at 0.5 mg/kg, iv measured up to 48 hrs by LC-MS/MS analysis; format: ADME, organism-based, Macaca fascicularis; conditions: in vivo
Cytochrome P450 3A4 = Cytochrome P450 3A4 (Homo sapiens, UniProt P08684); test: Inhibition of CYP3A4 in human liver microsomes using testosterone as substrate incubated for 5 mins in presence of NADPH by LC-MS/MS analysis; format: ADME, Microsome
Cytochrome P450 3A4, sequence (P08684 whole entry): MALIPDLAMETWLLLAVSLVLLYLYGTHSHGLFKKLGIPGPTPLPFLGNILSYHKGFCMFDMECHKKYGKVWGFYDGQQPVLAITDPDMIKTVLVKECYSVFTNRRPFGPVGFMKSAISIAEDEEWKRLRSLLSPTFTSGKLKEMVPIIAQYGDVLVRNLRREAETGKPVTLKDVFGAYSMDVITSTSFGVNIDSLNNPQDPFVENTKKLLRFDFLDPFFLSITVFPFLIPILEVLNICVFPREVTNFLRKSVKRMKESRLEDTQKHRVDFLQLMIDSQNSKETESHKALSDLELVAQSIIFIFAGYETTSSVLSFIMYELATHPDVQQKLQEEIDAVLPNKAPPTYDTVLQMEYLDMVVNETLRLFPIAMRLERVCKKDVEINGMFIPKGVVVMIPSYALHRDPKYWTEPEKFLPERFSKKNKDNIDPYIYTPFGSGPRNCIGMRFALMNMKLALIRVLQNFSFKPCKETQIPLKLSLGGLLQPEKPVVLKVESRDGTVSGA

[14] = Agonist activity at cynomolgus monkey GLP-1R expressed in HEK293 cells by cAMP accumulation assay; conditions: Macaca fascicularis
[15] = target: T4, Glucagon-like peptide 1 receptor (Mus musculus, UniProt O35659); test: Agonist activity at mouse GLP-1R expressed in HEK293 cells by cAMP accumulation assay; format: functional, cell-based
T4 sequence (O35659 whole entry): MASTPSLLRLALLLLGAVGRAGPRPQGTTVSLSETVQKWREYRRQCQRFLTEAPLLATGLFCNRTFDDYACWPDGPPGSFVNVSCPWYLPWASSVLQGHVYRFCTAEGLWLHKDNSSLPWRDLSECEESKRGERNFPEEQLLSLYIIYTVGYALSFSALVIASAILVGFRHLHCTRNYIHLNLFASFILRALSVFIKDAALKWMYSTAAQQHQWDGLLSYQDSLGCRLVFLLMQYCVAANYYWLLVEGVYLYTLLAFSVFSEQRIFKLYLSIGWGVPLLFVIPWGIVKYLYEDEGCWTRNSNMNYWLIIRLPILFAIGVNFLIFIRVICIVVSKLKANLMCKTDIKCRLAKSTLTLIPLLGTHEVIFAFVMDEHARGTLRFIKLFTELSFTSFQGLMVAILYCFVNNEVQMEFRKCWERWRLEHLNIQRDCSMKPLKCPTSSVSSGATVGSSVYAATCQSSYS

[16] = AUC last in male Sprague-Dawley rat at 1 mg/kg, iv measured up to 24 hrs by LC-MS/MS analysis; format: ADME, organism-based; conditions: in vivo
5-HT1B receptor = 5-HT1B receptor (Homo sapiens, UniProt P28222); test: Inhibition of 5-HT1B (unknown origin) at 10 uM relative to control; format: toxicity
5-HT1B receptor, sequence (P28222 whole entry): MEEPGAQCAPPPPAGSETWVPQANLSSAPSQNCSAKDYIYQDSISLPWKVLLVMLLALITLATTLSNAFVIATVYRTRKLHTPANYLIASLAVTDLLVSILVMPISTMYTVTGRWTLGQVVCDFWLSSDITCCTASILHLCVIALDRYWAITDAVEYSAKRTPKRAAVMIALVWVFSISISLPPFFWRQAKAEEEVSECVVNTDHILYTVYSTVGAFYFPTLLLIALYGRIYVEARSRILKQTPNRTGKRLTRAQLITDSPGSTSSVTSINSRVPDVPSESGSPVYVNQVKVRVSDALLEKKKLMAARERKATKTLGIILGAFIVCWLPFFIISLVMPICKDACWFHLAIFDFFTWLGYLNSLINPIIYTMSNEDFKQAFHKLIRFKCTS

[17] = target: T5, Glucagon-like peptide 1 receptor (Rattus norvegicus, UniProt P32301); test: Agonist activity at rat GLP-1R expressed in HEK293 cells by cAMP accumulation assay; format: functional, cell-based
T5 sequence (P32301 whole entry): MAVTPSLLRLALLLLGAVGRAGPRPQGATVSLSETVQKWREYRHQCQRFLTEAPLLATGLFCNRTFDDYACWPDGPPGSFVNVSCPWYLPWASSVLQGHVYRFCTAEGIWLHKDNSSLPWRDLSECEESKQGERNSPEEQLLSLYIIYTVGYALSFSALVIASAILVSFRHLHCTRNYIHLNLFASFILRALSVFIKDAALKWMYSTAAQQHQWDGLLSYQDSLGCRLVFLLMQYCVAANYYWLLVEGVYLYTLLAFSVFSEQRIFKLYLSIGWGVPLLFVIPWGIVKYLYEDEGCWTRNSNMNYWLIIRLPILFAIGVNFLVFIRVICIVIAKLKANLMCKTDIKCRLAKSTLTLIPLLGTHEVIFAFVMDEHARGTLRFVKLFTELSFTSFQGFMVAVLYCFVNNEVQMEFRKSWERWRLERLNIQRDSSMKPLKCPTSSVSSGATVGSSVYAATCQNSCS

Cytochrome P450 2C8 = target: T6, Cytochrome P450 2C8 (Homo sapiens, UniProt P10632); test: Inhibition of CYP2C8 in human liver microsomes incubated for 20 mins in presence of NADPH by LC-MS/MS analysis; format: ADME, Microsome
T6 sequence (P10632 whole entry): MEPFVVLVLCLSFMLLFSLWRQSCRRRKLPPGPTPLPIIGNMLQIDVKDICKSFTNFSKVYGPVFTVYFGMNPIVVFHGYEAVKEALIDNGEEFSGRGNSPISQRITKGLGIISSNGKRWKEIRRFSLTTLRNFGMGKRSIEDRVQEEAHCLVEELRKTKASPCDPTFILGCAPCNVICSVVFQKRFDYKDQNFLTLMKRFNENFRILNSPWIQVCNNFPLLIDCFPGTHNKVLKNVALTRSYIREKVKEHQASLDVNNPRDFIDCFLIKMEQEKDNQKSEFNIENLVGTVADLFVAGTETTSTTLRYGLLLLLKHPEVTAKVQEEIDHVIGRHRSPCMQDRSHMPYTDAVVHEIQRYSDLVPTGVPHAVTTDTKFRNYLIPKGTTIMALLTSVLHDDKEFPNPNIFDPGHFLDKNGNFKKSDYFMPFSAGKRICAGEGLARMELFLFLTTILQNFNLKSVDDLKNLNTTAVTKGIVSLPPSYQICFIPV

[18] = Oral bioavailability in Cynomolgus monkey at 5 mg/kg measured up to 48 hrs by LC-MS/MS analysis; format: ADME, organism-based, Macaca fascicularis; conditions: in vivo
[19] = Metabolic stability in human liver microsomes assessed as intrinsic clearance at 1 uM measured after 5 to 45 mins in presence of NADPH by LC-MS/MS analysis; format: ADME, Microsome; conditions: time 5-45 min, read-out: CLH
[20] = Agonist activity at dog GLP-1R expressed in HEK293 cells by cAMP accumulation assay; conditions: Canis lupus familiaris
Cytochrome P450 2C19 = Cytochrome P450 2C19 (Homo sapiens, UniProt P33261); test: Inhibition of CYP2C19 in human liver microsomes incubated for 45 mins in presence of NADPH by LC-MS/MS analysis; format: ADME, Microsome
Cytochrome P450 2C19, sequence (P33261 whole entry): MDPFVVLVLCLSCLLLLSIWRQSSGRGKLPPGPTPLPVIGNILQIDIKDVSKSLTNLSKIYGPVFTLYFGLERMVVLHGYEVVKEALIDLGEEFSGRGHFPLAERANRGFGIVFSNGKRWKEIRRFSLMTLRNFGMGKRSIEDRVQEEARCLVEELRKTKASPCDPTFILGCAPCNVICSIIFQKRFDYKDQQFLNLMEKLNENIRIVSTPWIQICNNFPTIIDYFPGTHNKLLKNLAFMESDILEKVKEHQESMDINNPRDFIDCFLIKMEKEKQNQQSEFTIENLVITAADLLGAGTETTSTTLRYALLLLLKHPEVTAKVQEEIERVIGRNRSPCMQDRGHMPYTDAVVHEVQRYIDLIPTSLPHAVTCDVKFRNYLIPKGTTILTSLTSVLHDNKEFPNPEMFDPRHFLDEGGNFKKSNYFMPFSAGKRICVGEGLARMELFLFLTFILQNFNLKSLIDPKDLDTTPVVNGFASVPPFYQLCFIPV

[21] = Cmax in Sprague-Dawley rat at 10 mg/kg, po measured up to 24 hrs by LC-MS/MS analysis; format: ADME, organism-based; conditions: in vivo
[22] = Half life in Cynomolgus monkey at 5 mg/kg, po measured up to 48 hrs by LC-MS/MS analysis; format: ADME, organism-based, Macaca fascicularis; conditions: in vivo
hERG (KCNH2) = hERG (KCNH2) (Homo sapiens, UniProt Q12809); test: Inhibition of human ERG at 30 uM by whole-cell patch clamp technique relative to control; format: toxicity
hERG (KCNH2), sequence (Q12809 whole entry): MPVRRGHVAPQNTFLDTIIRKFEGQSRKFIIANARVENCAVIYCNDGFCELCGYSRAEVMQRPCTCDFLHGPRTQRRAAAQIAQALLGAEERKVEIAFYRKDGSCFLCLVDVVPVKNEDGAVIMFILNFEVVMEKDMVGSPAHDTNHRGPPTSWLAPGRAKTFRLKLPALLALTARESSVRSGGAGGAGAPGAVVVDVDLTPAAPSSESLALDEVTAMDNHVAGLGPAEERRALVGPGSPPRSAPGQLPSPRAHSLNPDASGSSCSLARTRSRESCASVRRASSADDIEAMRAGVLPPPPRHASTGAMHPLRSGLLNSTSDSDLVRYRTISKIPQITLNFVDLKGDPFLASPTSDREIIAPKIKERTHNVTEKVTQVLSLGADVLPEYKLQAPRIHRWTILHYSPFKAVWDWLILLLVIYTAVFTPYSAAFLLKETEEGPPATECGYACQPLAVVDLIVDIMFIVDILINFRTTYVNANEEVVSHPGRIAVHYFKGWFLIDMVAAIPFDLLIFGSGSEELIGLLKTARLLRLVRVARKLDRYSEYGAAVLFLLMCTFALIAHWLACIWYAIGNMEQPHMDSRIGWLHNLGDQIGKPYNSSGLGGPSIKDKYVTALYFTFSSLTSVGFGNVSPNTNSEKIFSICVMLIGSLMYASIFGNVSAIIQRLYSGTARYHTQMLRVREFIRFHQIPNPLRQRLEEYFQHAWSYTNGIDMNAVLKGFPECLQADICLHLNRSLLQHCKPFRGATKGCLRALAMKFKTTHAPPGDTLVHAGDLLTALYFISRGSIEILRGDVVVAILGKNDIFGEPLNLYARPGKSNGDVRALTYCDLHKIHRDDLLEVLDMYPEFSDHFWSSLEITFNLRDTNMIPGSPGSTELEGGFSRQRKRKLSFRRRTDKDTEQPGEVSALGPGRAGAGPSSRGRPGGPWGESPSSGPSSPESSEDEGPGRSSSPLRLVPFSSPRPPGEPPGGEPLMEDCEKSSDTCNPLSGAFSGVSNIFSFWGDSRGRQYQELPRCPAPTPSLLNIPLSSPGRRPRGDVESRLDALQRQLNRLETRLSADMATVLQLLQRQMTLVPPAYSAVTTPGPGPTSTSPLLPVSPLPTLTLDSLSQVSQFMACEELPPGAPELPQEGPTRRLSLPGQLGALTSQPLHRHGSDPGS

[23] = target: Voltage-gated inwardly rectifying potassium channel KCNH2 (Homo sapiens, UniProt Q12809); test: Inhibition of human ERG by whole-cell patch clamp technique; format: toxicity
Cytochrome P450 2D6 = Cytochrome P450 2D6 (Homo sapiens, UniProt P10635); test: Inhibition of CYP2D6 in human liver microsomes incubated for 20 mins in presence of NADPH by LC-MS/MS analysis; format: ADME, Microsome
Cytochrome P450 2D6, sequence (P10635 whole entry): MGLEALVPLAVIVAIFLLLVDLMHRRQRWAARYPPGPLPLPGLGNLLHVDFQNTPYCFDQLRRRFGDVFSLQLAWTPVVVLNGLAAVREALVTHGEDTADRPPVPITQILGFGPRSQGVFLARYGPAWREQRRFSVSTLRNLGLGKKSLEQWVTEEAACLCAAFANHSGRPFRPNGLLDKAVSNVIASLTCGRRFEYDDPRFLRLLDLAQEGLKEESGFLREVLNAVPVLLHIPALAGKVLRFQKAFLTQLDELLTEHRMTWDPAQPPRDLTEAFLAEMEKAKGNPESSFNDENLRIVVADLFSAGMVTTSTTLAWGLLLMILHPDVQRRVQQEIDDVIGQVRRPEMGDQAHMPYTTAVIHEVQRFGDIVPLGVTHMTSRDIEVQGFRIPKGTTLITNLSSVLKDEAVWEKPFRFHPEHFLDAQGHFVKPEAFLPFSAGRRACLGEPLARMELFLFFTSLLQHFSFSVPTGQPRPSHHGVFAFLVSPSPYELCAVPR

[24] = AUC last in Cynomolgus monkey at 5 mg/kg, po measured up to 48 hrs by LC-MS/MS analysis; format: ADME, organism-based, Macaca fascicularis; conditions: in vivo

EC50 [1]: 359 nM
Structure (SMILES): COCCn1c(Cc2ccc(-c3cccc(OCc4ccc(Cl)c5ccoc45)n3)cc2F)nc2ccc(C(=O)O)cc21

EC50 [1]: 1.32 nM
IC50 (Cytochrome P450 2B6): > 30000 nM
EC50 [2]: 118 nM
Cmax [4]: 327 ng/mL
IC50 (Cytochrome P450 1A2): > 30000 nM
Tmax [5]: 3.5 h
bioavailability [6]: 20.1%
EC50 [7]: 0.029 nM
Tmax [8]: 2.5 h
half-life at 1 µM [10]: 2.18 h
CLhep predicted at 1 µM [11]: 8.09 mL/min/kg
AUC(0-t) at 24 h [12]: 2960 ng·h/mL
IC50 (Cytochrome P450 2C9): > 30000 nM
half-life [13]: 12.7 h
IC50 (Cytochrome P450 3A4): > 30000 nM
EC50 [14]: 0.012 nM
EC50 [15]: > 30000 nM
AUC(0-t) at 24 h [16]: 1480 ng·h/mL
EC50 [17]: > 30000 nM
IC50 (Cytochrome P450 2C8): 28300 nM
bioavailability [18]: 13.9%
CLint scaled at 1 µM [19]: 13.3 mL/min/kg
EC50 [20]: > 30000 nM
IC50 (Cytochrome P450 2C19): > 30000 nM
Cmax [21]: 347 ng/mL
half-life [22]: 10.4 h
IC50 (Cytochrome P450 2D6): > 30000 nM
AUC(0-t) at 48 h [24]: 2440 ng·h/mL
Structure (SMILES): O=C(O)c1ccc2nc(Cc3ccc(-c4ccc(F)c(OCc5ccc(Cl)c6ccoc56)n4)cc3F)n(C[C@@H]3CCO3)c2c1
inhibition at 10 µM [3]: 74.4%
inhibition at 10 µM [9]: 87.5%
inhibition at 10 µM (5-HT1B receptor): 62.4%
inhibition at 30 µM (hERG (KCNH2)): < 50%
IC50 [23]: > 30000 nM

EC50 [1]: 70.9 nM
Structure (SMILES): O=C(O)c1ccc2nc(Cc3ccc(-c4cncc(OCc5ccc(Cl)c6ccoc56)n4)cc3F)n(C[C@@H]3CCO3)c2c1

EC50 [1]: 198 nM
Structure (SMILES): Cn1ccc2ccc(COc3cccc(-c4ccc(Cc5nc6ccc(C(=O)O)cc6n5C[C@@H]5CCO5)c(F)c4)n3)cc21

EC50 [1]: 85.5 nM
Structure (SMILES): N#Cc1ccc(COc2cccc(N3CCC(Cc4nc5ccc(C(=O)O)cc5n4C[C@@H]4CCO4)CC3)n2)c(F)c1
